Experiments:
KASUMI-1 cells [1] = test: Anti-proliferation 72-hour CTG assay, KASUMI-1; format: cell-based; conditions: Homo sapiens; KASUMI-1, 72-hour CTG assay; read-out: IC50 of the anti-proliferative effect
Description: (§1) A plethora of AML cell lines were treated with serial dilutions of Compound D. IC50 value of the anti-proliferation effect of Compound D (as determined in 72-hour CTG assays) in each cell line is summarized in Table 1.

HL-60 cells = test: Anti-proliferation 72-hour CTG assay, HL-60; format: cell-based; conditions: Homo sapiens; HL-60, 72-hour CTG assay; read-out: IC50 of the anti-proliferative effect
Description: as §1

KASUMI-1 cells [2] = test: Apoptosis (caspase 3/7 activation), Kasumi-1; format: cell-based, human
F36-P cells = test: Apoptosis (caspase 3/7 activation), F36-P; format: cell-based, human
ATF4 = ATF4 protein induction, western blot, HNT-34; format: cell-based, human; conditions: HNT-34, 10 nM Compound D
Description: The time course of GSPT1 degradation was monitored by western blot analysis of HNT-34 AML cells and normal PBMCs (FIGS. 32A-32D) following incubation with Compound D (1, 10, and 100 nM).

ATF3 and DDIT3 mRNA = ATF3 and DDIT3 mRNA induction, HNT-34; format: cell-based, human
Source text: The kinetics of induction of mRNA for UPR factors ATF3 and DDIT3 in HNT-34 cells also strongly differed from that in PBMCs. […] This is also consistent with the reduced cytotoxicity observed for Compound D in normal adult lymphocytes as compared with tumor cells (data not shown).

IKZF1 = IKZF1 (Homo sapiens, UniProt Q13422+Q96SW2); conditions: NB4 cell line
Sequence of IKZF1 (Q13422 whole entry): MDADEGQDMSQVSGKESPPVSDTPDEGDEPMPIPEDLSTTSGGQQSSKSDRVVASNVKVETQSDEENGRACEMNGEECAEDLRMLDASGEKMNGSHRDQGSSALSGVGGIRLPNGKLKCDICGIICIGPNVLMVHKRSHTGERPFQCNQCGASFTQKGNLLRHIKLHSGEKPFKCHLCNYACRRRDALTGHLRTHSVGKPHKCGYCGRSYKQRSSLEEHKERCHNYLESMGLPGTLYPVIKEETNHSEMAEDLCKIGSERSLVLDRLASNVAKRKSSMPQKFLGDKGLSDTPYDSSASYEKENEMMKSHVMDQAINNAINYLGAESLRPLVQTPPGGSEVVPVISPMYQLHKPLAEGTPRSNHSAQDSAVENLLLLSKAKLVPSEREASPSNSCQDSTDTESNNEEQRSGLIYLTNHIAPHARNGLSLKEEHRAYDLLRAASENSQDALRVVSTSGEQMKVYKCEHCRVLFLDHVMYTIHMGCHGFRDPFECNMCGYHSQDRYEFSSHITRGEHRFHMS
Sequence of IKZF1 (Q96SW2 whole entry): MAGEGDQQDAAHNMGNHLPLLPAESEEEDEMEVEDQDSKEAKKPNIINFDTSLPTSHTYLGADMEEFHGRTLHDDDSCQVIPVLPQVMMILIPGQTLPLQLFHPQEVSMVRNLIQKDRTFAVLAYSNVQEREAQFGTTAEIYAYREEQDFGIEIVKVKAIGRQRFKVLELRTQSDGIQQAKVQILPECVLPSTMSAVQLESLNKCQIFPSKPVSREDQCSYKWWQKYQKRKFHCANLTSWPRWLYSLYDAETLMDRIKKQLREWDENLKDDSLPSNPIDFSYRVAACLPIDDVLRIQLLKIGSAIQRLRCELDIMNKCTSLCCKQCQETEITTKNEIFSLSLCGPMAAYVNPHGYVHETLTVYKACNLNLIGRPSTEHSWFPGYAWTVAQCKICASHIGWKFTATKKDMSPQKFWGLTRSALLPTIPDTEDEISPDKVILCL
Sequence of IKZF1 (Q16531 whole entry partner): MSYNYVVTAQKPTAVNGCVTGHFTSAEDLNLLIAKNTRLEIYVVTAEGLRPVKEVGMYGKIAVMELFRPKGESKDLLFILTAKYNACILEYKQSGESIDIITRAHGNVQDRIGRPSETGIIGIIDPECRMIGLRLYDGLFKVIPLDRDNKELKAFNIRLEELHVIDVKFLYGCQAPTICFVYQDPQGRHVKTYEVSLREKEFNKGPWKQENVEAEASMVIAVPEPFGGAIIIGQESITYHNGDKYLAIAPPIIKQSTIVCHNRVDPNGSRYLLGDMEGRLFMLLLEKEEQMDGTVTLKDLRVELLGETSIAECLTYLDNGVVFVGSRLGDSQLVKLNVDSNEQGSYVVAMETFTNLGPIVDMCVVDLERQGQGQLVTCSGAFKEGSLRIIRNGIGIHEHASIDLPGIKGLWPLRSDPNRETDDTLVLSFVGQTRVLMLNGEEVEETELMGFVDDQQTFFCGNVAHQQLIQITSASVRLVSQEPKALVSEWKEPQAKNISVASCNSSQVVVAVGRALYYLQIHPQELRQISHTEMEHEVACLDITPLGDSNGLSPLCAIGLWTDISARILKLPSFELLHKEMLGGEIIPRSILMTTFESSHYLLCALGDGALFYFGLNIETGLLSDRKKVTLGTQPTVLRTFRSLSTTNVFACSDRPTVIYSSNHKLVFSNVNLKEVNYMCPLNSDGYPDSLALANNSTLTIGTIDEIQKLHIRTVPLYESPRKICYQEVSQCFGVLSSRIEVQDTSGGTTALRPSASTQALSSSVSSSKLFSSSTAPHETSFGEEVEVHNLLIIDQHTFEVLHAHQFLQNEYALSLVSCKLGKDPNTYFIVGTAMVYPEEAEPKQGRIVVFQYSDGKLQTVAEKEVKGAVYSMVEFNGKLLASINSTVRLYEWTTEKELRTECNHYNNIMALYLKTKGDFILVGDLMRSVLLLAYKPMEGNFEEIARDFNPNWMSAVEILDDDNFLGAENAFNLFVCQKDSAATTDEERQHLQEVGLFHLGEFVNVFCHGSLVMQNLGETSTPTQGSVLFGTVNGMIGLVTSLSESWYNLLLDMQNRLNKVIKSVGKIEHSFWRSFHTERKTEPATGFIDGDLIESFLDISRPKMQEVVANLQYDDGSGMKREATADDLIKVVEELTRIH

GSPT1 [3] = target: T1, GSPT1 (Homo sapiens, UniProt P15170+Q96SW2); test: GSPT1 degradation, western blot, MOLM-13; format: cell-based; parameters: endogenous in cells; conditions: 100 nM
T1 sequence (P15170 1-637 isoform P15170-3): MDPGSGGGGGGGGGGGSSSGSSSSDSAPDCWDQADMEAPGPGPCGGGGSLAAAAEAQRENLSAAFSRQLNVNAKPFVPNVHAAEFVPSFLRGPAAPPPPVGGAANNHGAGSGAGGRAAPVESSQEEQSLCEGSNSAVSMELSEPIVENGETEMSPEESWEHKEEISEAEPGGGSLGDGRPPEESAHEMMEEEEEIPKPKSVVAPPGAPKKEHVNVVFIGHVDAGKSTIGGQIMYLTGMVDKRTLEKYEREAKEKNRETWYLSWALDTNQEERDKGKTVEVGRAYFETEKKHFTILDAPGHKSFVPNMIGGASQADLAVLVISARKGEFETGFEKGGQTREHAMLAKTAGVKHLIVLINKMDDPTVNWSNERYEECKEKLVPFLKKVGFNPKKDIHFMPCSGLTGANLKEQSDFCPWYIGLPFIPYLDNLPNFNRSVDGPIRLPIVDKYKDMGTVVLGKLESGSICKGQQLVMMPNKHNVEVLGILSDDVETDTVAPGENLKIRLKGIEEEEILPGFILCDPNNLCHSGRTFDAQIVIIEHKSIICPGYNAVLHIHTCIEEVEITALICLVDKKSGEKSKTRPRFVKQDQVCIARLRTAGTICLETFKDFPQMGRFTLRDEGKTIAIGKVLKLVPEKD
T1 sequence (Q96SW2 whole entry): as the sequence (Q96SW2 whole entry) above
T1 sequence (Q16531 whole entry partner): as the sequence (Q16531 whole entry partner) above
Source text: Thus, Compound D-induced GSPT1 degradation is also CRBN-dependent.

GSPT1 [4] = target: T1, GSPT1; test: GSPT1 protein reduction, western analysis, HNT-34; format: cell-based; parameters: reduction in GSPT1 protein level was evaluated in human normal PBMCs; endogenous in cells; host or cells: primary PBMCs from normal donors (ID 4328, 4379) and AML patients (ID 11SH, 09P6); conditions: HNT-34, 10 nM Compound D
Description: (§2) The time course of the reduction in GSPT1 by Compound D also was studied for up to 48 hours. The progressive degradation of GSPT1 over the course of 1 to 20 hours was evident in the presence of all concentrations of Compound D studied from 3 to 300 nM in HNT-34, HL-60, and ML-2 cells, with little GSPT1 remaining by 20 hours at 100 or 300 nM Compound D in HNT-34 or HL-60 cells (FIG. 34 and FIG. 35C). Time-dependent reduction in GSPT1 was also observed in KG-1 and OCI-AML2 cells at 3 to 1000 nM Compound D, with little GSPT1 remaining in KG-1 cells at 100 to 300 nM at 24 hours or in OCI-AML2 cells at 300 and 1000 nM at 24 hours (FIG. 35D). Loss of GSPT1 occurred more slowly in Kasumi-1, AML-193, and […] cells. […] A positive association (r^2=0.50; […]

GSPT1 [5] = target: T1, GSPT1; test: GSPT1 protein reduction, western analysis, HL-60; format: cell-based; parameters: reduction in GSPT1 protein level was evaluated in human normal PBMCs; endogenous in cells; host or cells: primary PBMCs from normal donors (ID 4328, 4379) and AML patients (ID 11SH, 09P6)
Description: as §2, with “FIG. 30C [HL-60]) and 48-hour (FIG. 30B [KG-1]; FIG. 30D [HL-60]) time points. […] The time” for “The time”

GSPT1 [6] = target: T1, GSPT1; test: GSPT1 protein reduction, western analysis, ML-2; format: cell-based; parameters: reduction in GSPT1 protein level was evaluated in human normal PBMCs; endogenous in cells; host or cells: primary PBMCs from normal donors (ID 4328, 4379) and AML patients (ID 11SH, 09P6)
Description: as §2

GSPT1 [7] = target: T1, GSPT1; test: GSPT1 protein reduction, western analysis, AML patient PBMCs; format: cell-based; parameters: reduction in GSPT1 protein level was evaluated in human normal PBMCs; endogenous in cells; host or cells: primary PBMCs from normal donors (ID 4328, 4379) and AML patients (ID 11SH, 09P6); conditions: PBMC sample 11SH (AML)

O=C1CCC(N2Cc3cc(CNC(=O)C(F)(F)c4ccc(Cl)cc4)ccc3C2=O)C(=O)N1 (centres unmarked) [Compound D, 2-(4-chlorophenyl)-N-((2-(2,6-dioxopiperidin-3-yl)-1-oxoisoindolin-5-yl)methyl)-2,2-difluoroacetamide]
IC50 (KASUMI-1 cells [1]): 0.021 µM
IC50 (HL-60 cells): 0.02 µM
EC50 (KASUMI-1 cells [2]; Homo sapiens, read-out: Compound D-induced Apoptosis EC50, Kasumi-1, 96 hr): 0.055 µM
Average Percent Increase in Apoptosis at 123 nM Compound D, Apoptosis (12 hr) (KASUMI-1 cells [2]; Kasumi-1, 123 nM, 12 hr): 1%
Average Percent Increase in Apoptosis at 123 nM Compound D, Apoptosis (24 hr) (KASUMI-1 cells [2]; Kasumi-1, 123 nM, 24 hr): 3%
Average Percent Increase in Apoptosis at 123 nM Compound D, Apoptosis (48 hr) (KASUMI-1 cells [2]; Kasumi-1, 123 nM, 48 hr): 18%
Average Percent Increase in Apoptosis at 123 nM Compound D, Apoptosis (12 hr) (F36-P cells; 12 hr): 0%
Average Percent Increase in Apoptosis at 123 nM Compound D, Apoptosis (24 hr) (F36-P cells; 24 hr): 2%
Average Percent Increase in Apoptosis at 123 nM Compound D, Apoptosis (48 hr) (F36-P cells; 48 hr): 6%
time of induction of ATF4 protein (ATF4): 8 h
time of induction of ATF3 and DDIT3 mRNA (ATF3 and DDIT3 mRNA): ≤ 8 h
effect on IKZF1 level (IKZF1): induced degradation
degradation of GSPT1 (GSPT1 [3]; CRBN -/- MOLM-13 cells): could not induce degradation
degradation of GSPT1 (GSPT1 [3]; parental MOLM-13 cells): induced degradation
time at which GSPT1 degradation was evident (GSPT1 [4]): ≤ 2 h
reduction of GSPT1 protein levels (GSPT1 [5]; HL-60, 100 nM Compound D, 4 hours): greater than 800
reduction of GSPT1 (GSPT1 [5]; HL-60, >30 nM Compound D, 8 hours): complete reduction
reduction of GSPT1 protein levels (GSPT1 [6]; ML-2, 100 nM Compound D, 8 hours): greater than 800
Percent Reduction at 100 nM Compound D GSPTI (8 hr) (GSPT1 [6]; ML-2, 100 nM, 8 hr): 82%
Reduction in GSPT1 Protein Level (GSPT1 [7]; 100 nM Compound D, 8 hours): 86%
Reduction in GSPT1 Protein Level (GSPT1 [7]; 100 nM Compound D, 22 hours): 100%
Reduction in GSPT1 Protein Level (GSPT1 [7]; 300 nM Compound D, 8 hours): 100%
Reduction in GSPT1 Protein Level (GSPT1 [7]; 300 nM Compound D, 22 hours): 100%

Reference: patent US12474342B2, “Methods for treating cancer and the use of biomarkers as a predictor of clinical sensitivity to therapies” (CELGENE CORPORATION, priority 2016, dated 2025)
